The test addresses MetAP-2 (Homo sapiens, UniProt P50579). Kind of test: MetAP-2 activity measurement (coupled enzymatic reactions, Met-Arg-Ser substrate, dianisidine detection at 450 nm). The class given is biochemical. To be noted: Inhibition of MetAP-2; read-out: IC50 enzyme. In a few lines: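 Rate read from the linear part of the 450 nm absorbance trace. Dianisidine oxidation by peroxidase reports H2O2 made when amino acid oxidase acts on methionine cleaved from MAS tripeptide, one mol dye per mol Met; extinction coefficient gives molar activity.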

Structures are written as SMILES.

Chain of MetAP-2 (P50579 whole entry, species assumed): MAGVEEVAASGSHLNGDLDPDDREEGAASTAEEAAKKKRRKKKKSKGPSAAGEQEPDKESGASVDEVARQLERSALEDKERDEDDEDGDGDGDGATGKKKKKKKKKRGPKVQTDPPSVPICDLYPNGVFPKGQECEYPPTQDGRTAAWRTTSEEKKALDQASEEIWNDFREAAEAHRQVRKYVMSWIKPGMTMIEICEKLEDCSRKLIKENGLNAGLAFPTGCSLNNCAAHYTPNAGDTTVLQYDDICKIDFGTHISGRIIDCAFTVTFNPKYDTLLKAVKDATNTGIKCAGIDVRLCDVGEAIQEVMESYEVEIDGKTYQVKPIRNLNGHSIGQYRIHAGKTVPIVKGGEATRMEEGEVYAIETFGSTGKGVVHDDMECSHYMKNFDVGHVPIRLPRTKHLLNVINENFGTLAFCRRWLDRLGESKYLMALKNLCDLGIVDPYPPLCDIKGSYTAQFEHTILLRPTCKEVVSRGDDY

By IC50 is commonly meant the point on the concentration scale where inhibition reaches its midpoint. As for `NC(=O)c1c[nH]c2ccc(N3CC[C@](O)(C(=O)NCc4cc(F)cc(Cl)c4)C3=O)cc12` [A238, 5-[(S)-3-(3-Chloro-5-fluorobenzylcarbamoyl)-3-hydroxy-2-oxopyrrolidin-1-yl]-1H-indole-3-carboxamide], the IC50 fell in the range of 10 to 1000 nM.

Regarding `CN(C)C(=O)c1cccc(N2CCC(O)(C(=O)NCc3cc(F)cc(Cl)c3)C2=O)c1` (centres unmarked) [A134, N-(3-Chloro-5-fluorobenzyl)-1-(3-Dimethylcarbamoylphenyl)-3-hydroxy-2-oxopyrrolidine-3-carboxamide], the IC50 lay within 10 to 1000 nM.

As to `O=C(NCc1cc(F)cc(Cl)c1)[C@@]1(O)CCN(c2ccc(C(F)(F)F)cc2F)C1=O` [B65, N-(3-Chloro-5-fluorobenzyl)-(S)-1-(2-fluoro-4-trifluoromethyl-phenyl)-3-hydroxy-2-oxo-pyrrolidine-3-carboxamide], the IC50 fell in the range of 10 to 1000 nM.

For `O=C1CCc2cc(N3CC[C@](O)(C(=O)NCc4ccc(F)c(Cl)c4)C3=O)ccc2N1` [A247, N-(3-Chloro-4-fluorobenzyl)-(S)-3-hydroxy-2-oxo-1-(2-oxo-1,2,3,4-tetrahydroquinolin-6-yl)-pyrrolidine-3-carboxamide], the IC50 is 10 to 1000 nM.

As to `O=C(NCc1cc(F)cc(Cl)c1)[C@]1(O)CCN(c2cnc3[nH]cc(C(F)(F)F)c3c2)C1=O` [B140, N-(3-Chloro-5-fluorobenzyl)-(R)-3-hydroxy-2-oxo-1-(3-trifluoromethyl-1H-pyrrolo-[2,3-b]pyridin-5-yl)pyrrolidine-3-carboxamide], the IC50 is > 10000 nM.

In the case of `CC1(C)CN(c2ccccc2)C(=O)[C@]1(O)C(=O)NCc1cc(F)cc(Cl)c1` [A109, N-(3-Chloro-5-fluorobenzyl)-(R)-3-hydroxy-4,4-dimethyl-2-oxo-1-phenylpyrrolidine-3-carboxamide], the IC50 is > 10000 nM.

For `O=C1N(Cc2ccccc2)CCCC1(O)CNCc1cc(F)cc(Cl)c1` (centres unmarked) [B31, 1-Benzyl-3-[(3-chloro-5-fluorobenzylamino)methyl]-3-hydroxypiperidin-2-one], the IC50 is 10 to 1000 nM.

Regarding `NC(=O)c1cccc(N2CCC(O)(C(=O)NCCc3ccccc3C(F)(F)F)C2=O)c1` (centres unmarked) [A144, N-[2-(2-Trifluoromethylphenyl)-ethyl]-1-(3-carbamoylphenyl)-3-hydroxy-2-oxopyrrolidine-3-carboxamide], the IC50 lay in the range of 10 to 1000 nM.

In the case of `NC(=O)CN1CCC(O)(C(=O)NCc2cc(F)cc(Cl)c2)C1=O` (centres unmarked) [A248, N-(3-Chloro-5-fluorobenzyl)-1-carbamoylmethyl-3-hydroxy-2-oxopyrrolidine-3-carboxamide], the IC50 was 1000 to 10000 nM.

`O=C(c1cc2cc(N3CC[C@](O)(C(=O)NCc4cc(F)cc(Cl)c4)C3=O)ccc2[nH]1)N1CCC1` [B114, N-(3-Chloro-5-fluorobenzyl)-(S)-1-[2-(azetidine-1-carbonyl)-1H-indol-5-yl]-3-hydroxy-2-oxo-pyrrolidine-3-carboxamide]: the IC50 was 10 to 1000 nM.

As for `O=C(NCc1cc(F)cc(Cl)c1)C1(O)CCN(C[C@H]2CC[C@@H](C(=O)O)CC2)C1=O` (some centres unmarked) [A274, 4-[3-(3-Chloro-5-fluorobenzylcarbamoyl)-3-hydroxy-2-oxopyrrolidin-1-yl-methyl]cyclohexanecarboxylic acid], the IC50 was in the range of 1000 to 10000 nM.

Take `CC(=O)Nc1ccc(N2CCC(O)(C(=O)NCCc3cc(F)cc(Cl)c3)C2=O)cn1` (centres unmarked) [A139, N-[2-(3-Chloro-5-fluorophenyl)-ethyl]-1-(6-acetylaminopyridin-3-yl)-3-hydroxy-2-oxopyrrolidine-3-carboxamide]: the IC50 lay within 10 to 1000 nM.

Take `O=C(NCc1cc(F)cc(Cl)c1)[C@@]1(O)CCN(c2ccc(Br)c(CO)c2)C1=O` [B17, N-(3-Chloro-5-fluorobenzyl)-(S)-1-(4-bromo-3-hydroxymethyl-phenyl)-3-hydroxy-2-oxo-pyrrolidine-3-carboxamide]: the IC50 was 10 to 1000 nM.

As for `O=C1CCc2cc(N3CC[C@](O)(C(=O)NCc4ccc(Cl)cc4F)C3=O)ccc2N1` [A241, N-(4-Chloro-2-fluorobenzyl)-(S)-3-hydroxy-2-oxo-1-(2-oxo-1,2,3,4-tetrahydroquinolin-6-yl)-pyrrolidine-3-carboxamide], the IC50 is 10 to 1000 nM.

`O=C(NC1CC1)c1cccc(N2CC[C@@](O)(C(=O)NCc3cc(F)cc(Cl)c3)C2=O)c1` [A82, N-(3-Chloro-5-fluorobenzyl)-(R)-1-(3-cyclopropylcarbamoylphenyl)-3-hydroxy-2-oxopyrrolidine-3-carboxamide]: the IC50 lay in the range of 1000 to 10000 nM.

Take `NC(=O)c1cccc(N2CCC(O)(C(=O)NCCc3cc(F)cc(F)c3)C2=O)c1` (centres unmarked) [A201, N-[2-(3,5-Difluorophenyl)ethyl]-1-(3-carbamoylphenyl)-3-hydroxy-2-oxopyrrolidine-3-carboxamide]: the IC50 lay within 10 to 1000 nM.

In the case of `O=C(NCc1cc(F)cc(Cl)c1)C1(O)CCN(c2cc(C(F)(F)F)ccc2F)C1=O` (centres unmarked) [B26, N-(3-Chloro-5-fluorobenzyl)-1-(2-Fluoro-5-trifluoromethyl-phenyl)-3-hydroxy-2-oxo-pyrrolidine-3-carboxamide], the IC50 was 10 to 1000 nM.

Values taken from patent US10093623B2, “Cyclic amides as MetAP-2 inhibitors” (MERCK PATENT GmbH, priority 2012, dated 2018).
